Results published in patent publication US20120122860A1, “SOLID FORMS OF SULFONAMIDES AND AMINO ACIDS” (Plexxikon, Inc., priority 2009, published 2012).

Assays:
MAP4K4 = MAP4K4 (Homo sapiens, UniProt O95819); assay: Kinase activity assay, MAP4K4
Src = Src (Homo sapiens, UniProt P12931); assay: Kinase activity assay, Src
C-Raf = C-Raf (Homo sapiens, UniProt P04049); assay: Kinase activity assay, C-Raf
B-Raf V600E = B-Raf V600E (Homo sapiens, UniProt P15056, V600E); assay: Kinase activity assay, B-Raf V600E; type: biochemical; settings: read-out: activity toward kinase B-Raf V600E, IC50
Chain of B-Raf V600E (P15056 whole entry V600E): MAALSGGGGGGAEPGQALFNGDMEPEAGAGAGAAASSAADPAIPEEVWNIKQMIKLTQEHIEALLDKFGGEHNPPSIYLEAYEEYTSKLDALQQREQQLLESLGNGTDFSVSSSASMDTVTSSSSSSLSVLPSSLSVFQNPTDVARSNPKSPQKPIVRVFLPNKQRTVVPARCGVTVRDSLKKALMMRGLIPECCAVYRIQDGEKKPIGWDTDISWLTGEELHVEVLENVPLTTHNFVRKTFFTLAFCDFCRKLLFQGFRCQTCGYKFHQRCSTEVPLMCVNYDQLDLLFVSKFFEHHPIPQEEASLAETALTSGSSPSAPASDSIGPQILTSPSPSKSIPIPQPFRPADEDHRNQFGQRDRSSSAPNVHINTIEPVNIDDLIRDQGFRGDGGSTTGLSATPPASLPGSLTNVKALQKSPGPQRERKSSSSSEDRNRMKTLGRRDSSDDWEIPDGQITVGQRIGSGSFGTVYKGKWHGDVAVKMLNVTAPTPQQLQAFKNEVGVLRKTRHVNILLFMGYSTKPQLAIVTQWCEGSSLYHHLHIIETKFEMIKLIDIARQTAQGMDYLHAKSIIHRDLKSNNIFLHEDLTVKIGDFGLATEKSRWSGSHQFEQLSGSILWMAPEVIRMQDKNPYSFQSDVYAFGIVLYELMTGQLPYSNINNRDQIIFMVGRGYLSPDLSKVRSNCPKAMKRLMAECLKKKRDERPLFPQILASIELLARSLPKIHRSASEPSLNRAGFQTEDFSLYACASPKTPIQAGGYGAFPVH

Kdr = Kdr (Homo sapiens, UniProt P35968); assay: Kinase activity assay, Kdr
Fms = Fms (Homo sapiens, UniProt P07333); assay: Kinase activity assay, Fms
Chain of Fms (P07333 20-972): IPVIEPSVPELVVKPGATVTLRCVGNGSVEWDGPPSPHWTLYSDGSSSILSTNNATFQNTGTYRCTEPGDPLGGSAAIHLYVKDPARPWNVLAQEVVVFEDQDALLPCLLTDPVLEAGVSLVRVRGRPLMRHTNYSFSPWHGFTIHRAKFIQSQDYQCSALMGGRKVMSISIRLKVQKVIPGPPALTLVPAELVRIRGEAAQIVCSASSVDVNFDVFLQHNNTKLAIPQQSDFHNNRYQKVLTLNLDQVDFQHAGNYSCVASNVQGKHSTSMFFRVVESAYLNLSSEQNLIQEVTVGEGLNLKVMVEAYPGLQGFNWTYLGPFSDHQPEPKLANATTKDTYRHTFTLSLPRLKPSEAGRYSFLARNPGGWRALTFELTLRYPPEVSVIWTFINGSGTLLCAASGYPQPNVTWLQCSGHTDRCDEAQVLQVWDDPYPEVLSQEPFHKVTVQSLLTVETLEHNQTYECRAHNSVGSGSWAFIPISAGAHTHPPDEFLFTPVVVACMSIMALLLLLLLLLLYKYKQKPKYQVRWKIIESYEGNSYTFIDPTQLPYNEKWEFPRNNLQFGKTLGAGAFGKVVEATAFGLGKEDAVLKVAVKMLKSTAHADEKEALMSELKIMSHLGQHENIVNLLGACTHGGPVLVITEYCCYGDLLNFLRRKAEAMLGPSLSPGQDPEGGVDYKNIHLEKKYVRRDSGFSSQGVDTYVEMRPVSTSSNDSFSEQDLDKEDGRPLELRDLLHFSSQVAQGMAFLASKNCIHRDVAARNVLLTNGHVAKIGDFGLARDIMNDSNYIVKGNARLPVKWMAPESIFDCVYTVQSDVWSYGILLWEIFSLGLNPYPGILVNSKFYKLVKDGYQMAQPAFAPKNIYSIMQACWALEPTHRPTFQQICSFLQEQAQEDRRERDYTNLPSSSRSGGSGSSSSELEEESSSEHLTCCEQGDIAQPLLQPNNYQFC

TEC = biological target: T1, TEC (Homo sapiens, UniProt P42680); assay: Kinase activity assay, TEC
T1 sequence (P42680 1-631): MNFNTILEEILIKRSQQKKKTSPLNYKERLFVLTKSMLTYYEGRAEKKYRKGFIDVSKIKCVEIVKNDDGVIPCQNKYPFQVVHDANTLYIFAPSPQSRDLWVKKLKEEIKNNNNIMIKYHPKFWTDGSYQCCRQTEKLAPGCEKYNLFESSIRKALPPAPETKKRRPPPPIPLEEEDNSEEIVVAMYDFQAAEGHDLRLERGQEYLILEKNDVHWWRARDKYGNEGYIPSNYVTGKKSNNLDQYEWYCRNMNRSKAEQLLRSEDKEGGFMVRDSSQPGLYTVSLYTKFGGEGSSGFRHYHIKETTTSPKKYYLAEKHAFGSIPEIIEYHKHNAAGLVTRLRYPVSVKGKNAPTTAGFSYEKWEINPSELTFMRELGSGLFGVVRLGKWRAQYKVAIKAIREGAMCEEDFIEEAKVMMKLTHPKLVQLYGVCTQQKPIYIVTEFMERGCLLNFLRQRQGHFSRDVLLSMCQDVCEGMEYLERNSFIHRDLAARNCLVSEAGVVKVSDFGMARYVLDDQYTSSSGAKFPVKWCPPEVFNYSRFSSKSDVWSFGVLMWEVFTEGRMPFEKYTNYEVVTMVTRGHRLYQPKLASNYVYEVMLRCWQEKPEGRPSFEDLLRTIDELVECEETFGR

Kit = Kit (Homo sapiens, UniProt P10721); assay: Kinase activity assay, Kit
Chain of Kit (P10721 26-976): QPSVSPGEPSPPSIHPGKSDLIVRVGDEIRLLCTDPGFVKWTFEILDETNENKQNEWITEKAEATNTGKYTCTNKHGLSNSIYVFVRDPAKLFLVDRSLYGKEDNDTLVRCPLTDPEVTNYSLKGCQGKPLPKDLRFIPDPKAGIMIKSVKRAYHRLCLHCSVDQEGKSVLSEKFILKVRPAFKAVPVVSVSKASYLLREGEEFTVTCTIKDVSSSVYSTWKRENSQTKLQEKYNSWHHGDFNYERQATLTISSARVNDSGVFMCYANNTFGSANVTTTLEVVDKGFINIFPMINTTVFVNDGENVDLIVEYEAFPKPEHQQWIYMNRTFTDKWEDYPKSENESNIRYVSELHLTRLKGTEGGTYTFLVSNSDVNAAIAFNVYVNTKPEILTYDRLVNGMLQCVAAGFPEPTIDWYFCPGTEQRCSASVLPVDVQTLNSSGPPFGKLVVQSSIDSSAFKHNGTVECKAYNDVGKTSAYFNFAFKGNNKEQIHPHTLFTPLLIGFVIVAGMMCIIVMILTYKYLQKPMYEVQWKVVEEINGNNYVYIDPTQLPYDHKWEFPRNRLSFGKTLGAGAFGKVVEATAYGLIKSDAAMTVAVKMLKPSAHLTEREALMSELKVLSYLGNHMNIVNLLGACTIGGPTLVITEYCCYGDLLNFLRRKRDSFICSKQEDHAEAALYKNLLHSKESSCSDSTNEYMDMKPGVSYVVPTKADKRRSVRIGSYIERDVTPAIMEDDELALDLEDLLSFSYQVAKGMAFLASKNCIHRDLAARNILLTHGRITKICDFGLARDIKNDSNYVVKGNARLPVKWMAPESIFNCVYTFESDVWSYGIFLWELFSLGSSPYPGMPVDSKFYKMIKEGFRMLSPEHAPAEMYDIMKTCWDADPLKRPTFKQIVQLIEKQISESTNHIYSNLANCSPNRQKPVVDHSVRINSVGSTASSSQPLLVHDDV

B-Raf = B-Raf (Homo sapiens, UniProt P15056); assay: Kinase activity assay, B-Raf; type: biochemical; settings: read-out: activity toward kinase B-Raf, IC50
Chain of B-Raf (P15056 whole entry): as the sequence (P15056 whole entry V600E) above, with E600V counted along it

A-Raf = biological target: T2, A-Raf (Homo sapiens, UniProt P10398); assay: Kinase activity assay, A-Raf
T2 sequence (P10398 1-606): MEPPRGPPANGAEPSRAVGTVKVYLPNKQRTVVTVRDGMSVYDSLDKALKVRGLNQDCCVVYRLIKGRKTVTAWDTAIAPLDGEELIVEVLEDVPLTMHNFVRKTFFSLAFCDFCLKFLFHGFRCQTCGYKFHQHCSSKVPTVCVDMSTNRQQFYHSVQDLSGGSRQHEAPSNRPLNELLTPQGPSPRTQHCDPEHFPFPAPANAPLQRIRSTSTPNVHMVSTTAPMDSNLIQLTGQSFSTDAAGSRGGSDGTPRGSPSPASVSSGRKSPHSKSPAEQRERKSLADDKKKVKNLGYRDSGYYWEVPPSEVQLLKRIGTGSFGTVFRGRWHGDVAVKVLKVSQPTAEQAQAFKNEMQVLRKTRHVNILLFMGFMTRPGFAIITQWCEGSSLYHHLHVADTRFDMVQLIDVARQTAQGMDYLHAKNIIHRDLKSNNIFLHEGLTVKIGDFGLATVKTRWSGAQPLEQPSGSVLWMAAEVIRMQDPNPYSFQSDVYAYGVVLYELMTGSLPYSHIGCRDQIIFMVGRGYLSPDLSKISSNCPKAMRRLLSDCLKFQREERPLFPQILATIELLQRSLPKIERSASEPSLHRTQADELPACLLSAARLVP

Measured: IC50

Chain of C-Raf (P04049 whole entry): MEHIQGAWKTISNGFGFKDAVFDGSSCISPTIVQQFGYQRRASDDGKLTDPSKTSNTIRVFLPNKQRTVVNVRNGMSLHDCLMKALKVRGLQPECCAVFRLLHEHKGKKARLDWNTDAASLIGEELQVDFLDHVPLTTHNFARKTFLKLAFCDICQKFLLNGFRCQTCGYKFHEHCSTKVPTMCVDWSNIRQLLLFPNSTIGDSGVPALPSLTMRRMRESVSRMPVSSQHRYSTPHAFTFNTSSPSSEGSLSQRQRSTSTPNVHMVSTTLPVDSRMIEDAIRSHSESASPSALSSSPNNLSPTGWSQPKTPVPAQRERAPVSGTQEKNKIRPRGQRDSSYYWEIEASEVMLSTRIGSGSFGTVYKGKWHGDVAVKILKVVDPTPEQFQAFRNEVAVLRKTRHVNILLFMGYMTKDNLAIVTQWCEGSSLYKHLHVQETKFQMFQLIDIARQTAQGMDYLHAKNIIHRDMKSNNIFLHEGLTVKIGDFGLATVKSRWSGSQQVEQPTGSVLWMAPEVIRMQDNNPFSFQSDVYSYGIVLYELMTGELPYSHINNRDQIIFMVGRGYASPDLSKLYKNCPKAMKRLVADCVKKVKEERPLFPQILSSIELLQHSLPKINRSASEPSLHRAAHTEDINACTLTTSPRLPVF
Chain of Src (P12931 whole entry): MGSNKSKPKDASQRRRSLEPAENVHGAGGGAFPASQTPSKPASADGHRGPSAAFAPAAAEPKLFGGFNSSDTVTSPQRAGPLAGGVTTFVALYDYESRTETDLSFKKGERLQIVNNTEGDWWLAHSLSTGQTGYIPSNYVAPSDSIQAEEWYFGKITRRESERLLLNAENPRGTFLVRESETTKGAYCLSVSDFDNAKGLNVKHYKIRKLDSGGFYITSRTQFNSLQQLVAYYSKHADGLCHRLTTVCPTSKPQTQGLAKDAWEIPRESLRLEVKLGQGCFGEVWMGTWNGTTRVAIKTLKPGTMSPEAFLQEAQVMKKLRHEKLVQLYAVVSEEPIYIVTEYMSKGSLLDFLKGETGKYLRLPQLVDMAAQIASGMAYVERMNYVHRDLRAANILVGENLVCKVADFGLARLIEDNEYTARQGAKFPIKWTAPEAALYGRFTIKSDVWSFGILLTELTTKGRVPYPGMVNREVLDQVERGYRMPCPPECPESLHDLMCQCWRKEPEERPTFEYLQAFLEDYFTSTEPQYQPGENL

O=C(c1c(F)ccc(NS(=O)(=O)c2c(F)cccc2F)c1F)c1c[nH]c2ncc(Cl)cc12 [P-2003, N-[3-(5-Chloro-1H-pyrrolo[2,3-b]pyridine-3-carbonyl)-2,4-difluoro-phenyl]-2,6-difluoro-benzenesulfonamide]
not listed: A-Raf
≤ 10 µM: all other assays above

COc1cnc2[nH]cc(C(=O)c3c(F)ccc(NS(=O)(=O)C4CCCC4)c3F)c2c1 [P-2356, Cyclopentanesulfonic acid [2,4-difluoro-3-(5-methoxy-1H-pyrrolo[2,3-b]pyridine-3-carbonyl)-phenyl]-amide]
not listed: Fms | A-Raf
≤ 10 µM: all other assays above

Cc1cnc2[nH]cc(C(=O)c3c(F)ccc(NS(=O)(=O)c4c(F)cccc4F)c3F)c2c1 [P-2024, N-[2,4-Difluoro-3-(5-methyl-1H-pyrrolo[2,3-b]pyridine-3-carbonyl)-phenyl]-2,6-difluoro-benzenesulfonamide]
not listed: Fms | A-Raf
≤ 10 µM: all other assays above

CCC(C)S(=O)(=O)Nc1ccc(F)c(C(=O)c2c[nH]c3ncc(Cl)cc23)c1F (stereo not shown) [P-2310, Butane-2-sulfonic acid [3-(5-chloro-1H-pyrrolo[2,3-b]pyridine-3-carbonyl)-2,4-difluoro-phenyl]-amide]
not listed: Fms | A-Raf
≤ 10 µM: all other assays above

COc1cnc2[nH]cc(C(=O)c3c(F)ccc(NS(=O)(=O)C4CCCCC4)c3F)c2c1 [P-2355, Cyclohexanesulfonic acid [2,4-difluoro-3-(5-methoxy-1H-pyrrolo[2,3-b]pyridine-3-carbonyl)-phenyl]-amide]
not listed: Fms | A-Raf
≤ 10 µM: all other assays above

N#Cc1cnc2[nH]cc(C(=O)c3c(F)ccc(NS(=O)(=O)c4ccc(F)cc4F)c3F)c2c1 [P-2030, N-[3-(5-Cyano-1H-pyrrolo[2,3-b]pyridine-3-carbonyl)-2,4-difluoro-phenyl]-2,4-difluoro-benzenesulfonamide]
not listed: Fms | A-Raf
≤ 10 µM: all other assays above

CS(=O)(=O)c1cccc(-c2cnc3[nH]cc(C(=O)c4cc(NS(=O)(=O)C5CCCC5)ccc4F)c3c2)c1 [P-2445, Cyclopentanesulfonic acid {4-fluoro-3-[5-(3-methanesulfonyl-phenyl)-1H-pyrrolo[2,3-b]pyridine-3-carbonyl]-phenyl}-amide]
not listed: A-Raf
≤ 10 µM: all other assays above

Cc1cnc2[nH]cc(C(=O)c3cc(NS(=O)(=O)C4CCCCC4)ccc3F)c2c1 [P-2443, Cyclohexanesulfonic acid [4-fluoro-3-(5-methyl-1H-pyrrolo[2,3-b]pyridine-3-carbonyl)-phenyl]-amide]
≤ 10 µM: MAP4K4 | Kdr | Fms | TEC | Kit

O=C(c1c(F)ccc(NS(=O)(=O)C2CCCCC2)c1F)c1c[nH]c2ncc(Cl)cc12 [P-2357, Cyclohexanesulfonic acid [3-(5-chloro-1H-pyrrolo[2,3-b]pyridine-3-carbonyl)-2,4-difluoro-phenyl]-amide]
not listed: Fms | A-Raf
≤ 10 µM: all other assays above

COc1ccnc2[nH]cc(C(=O)c3c(F)ccc(NS(=O)(=O)c4c(F)cccc4F)c3F)c12 [P-2031, N-[2,4-Difluoro-3-(4-methoxy-1H-pyrrolo[2,3-b]pyridine-3-carbonyl)-phenyl]-2,6-difluoro-benzenesulfonamide]
not listed: Fms | A-Raf
≤ 10 µM: all other assays above

CS(=O)(=O)Nc1ccc(F)c(C(=O)c2c[nH]c3nccc(C#N)c23)c1F [P-2292, N-[3-(4-Cyano-1H-pyrrolo[2,3-b]pyridine-3-carbonyl)-2,4-difluoro-phenyl]-methanesulfonamide]
≤ 10 µM: C-Raf | B-Raf V600E | Kdr | A-Raf | TEC

COc1ccnc2[nH]cc(C(=O)c3c(F)ccc(NS(=O)(=O)c4cccc(F)c4)c3F)c12 [P-2023, N-[2,4-Difluoro-3-(4-methoxy-1H-pyrrolo[2,3-b]pyridine-3-carbonyl)-phenyl]-3-fluoro-benzenesulfonamide]
not listed: Fms | A-Raf
≤ 10 µM: all other assays above

N#Cc1cnc2[nH]cc(C(=O)c3c(F)ccc(NS(=O)(=O)c4c(F)cccc4F)c3F)c2c1 [P-2029, N-[3-(5-Cyano-1H-pyrrolo[2,3-b]pyridine-3-carbonyl)-2,4-difluoro-phenyl]-2,6-difluoro-benzenesulfonamide]
not listed: Fms | A-Raf
≤ 10 µM: all other assays above
